{"source": "patent US7335669B2", "about": "“Use of dihydroquinoline to aid in increasing milk production and feed utilization” (Novus International, Inc., priority 2002, dated 2008)", "key": {"broilers and layers": {"system": "broilers and layers", "settings": "cited from earlier work"}, "[1]": {"settings": "poultry and lambs, dietary ethoxyquin; cited from earlier work"}, "cows": {"system": "cows", "assay": "Example 1: two-week feeding regimen at four ethoxyquin concentration levels, twenty-four cows", "format": "in vivo", "source_text": "Each of twenty-four cows was randomly assigned to a feeding regimen of one of four concentration levels of ethoxyquin (0 ppm, 50 ppm, 100 ppm, and 150 ppm by weight on an as fed basis) for a two-week treatment period. Data were collected before and after the feeding regimen. The results were as follows, wherein the ethoxyquin concentration (“Ethox. Dose”) is presented in ppm by weight, on an as fed basis and “TMR” represents the total mixed ration consumed by the cows in pounds per day: […]"}, "[2]": {"assay": "Detection of ethoxyquin in milk from cattle treated by the method", "format": "in vivo", "source_text": "Of course, measurement of chemical levels has limitations. […] In any event, the level of ethoxyquin in the milk produced according to this invention certainly is less than 0.1 ppm by weight."}, "lactating dairy cows": {"system": "lactating dairy cows", "assay": "Example 2: switch-over pen trial, ethoxyquin 65 ppm in feed for three weeks, approximately 2400 lactating dairy cows", "format": "in vivo", "source_text": "Approximately 2400 lactating dairy cows were divided into two treatment groups of four pens per group. The cows in one of the two groups were fed ethoxyquin (at a concentration of 65 ppm by weight based on the weight of the total feed fed to the cows) for three weeks, with the four pens of the other group serving as controls. For the next two weeks, neither of the groups was fed ethoxyquin. The pens were then switched so that the previous control group was fed ethoxyquin (at a concentration of 65 ppm by weight based on the weight of the total feed fed to the cows) for three weeks. Milk production and feed intake were measured and feed efficiencies were calculated. The following table reports the means and pooled SEM results after correction for pen effects (wherein “Treated” refers to the cows receiving the ethoxyquin): […]"}, "[3]": {"settings": "about 125 to about 150 ppm by weight on DMI basis in diet of dairy cattle; cited from earlier work"}, "[4]": {"settings": "ethoxyquin 50 ppm by weight as fed basis"}, "[5]": {"settings": "ethoxyquin 100 ppm as fed basis"}, "[6]": {"settings": "ethoxyquin 100 ppm by weight as fed basis"}, "[7]": {"settings": "ethoxyquin 150 ppm as fed basis"}, "[8]": {"settings": "ethoxyquin 150 ppm by weight as fed basis"}, "[9]": {"settings": "ethoxyquin 65 ppm by weight of total feed, three weeks, mean after correction for pen effects"}}, "data": [{"smiles": "CCOc1ccc2c(c1)C(C)=CC(C)(C)N2", "note": "[ethoxyquin, 6-ethoxy-1,2-dihydro-2,2,4-trimethylquinoline]", "values": [{"measurement": "Effectiveness relative to alpha-tocopherol acetate", "setting": "broilers and layers; broiler study, 150 ppm ethoxyquin in feed", "result": "as effective as about 15 ppm alpha-tocopherol acetate"}, {"measurement": "Lipid oxidation in muscle tissues", "setting": "broilers and layers; dietary ethoxyquin, broilers 75 to 150 ppm, layers 500 ppm in feed", "result": "prevent lipid oxidation in muscle tissues in broilers and layers"}, {"measurement": "Ethoxyquin in muscle tissue", "setting": "[1]", "result": "detected in the muscle tissue of poultry and lambs"}, {"measurement": "Enhancement of milk production, comparison of concentrations", "setting": "cows; 50 ppm vs 150 ppm by weight, as fed basis", "result": "50 ppm has yielded greater enhancement of milk production than has 150 ppm"}, {"measurement": "Feed Intake (as fed basis), TMR in First Week", "setting": "cows; ethoxyquin 50 ppm as fed basis", "result": 91, "unit": "pounds per day"}, {"measurement": "Milk Production Based on Feed Efficiency, Lbs. Milk / TMR in First Week", "setting": "cows; ethoxyquin 50 ppm as fed basis", "result": "0.87 lbs. Milk Produced/pounds TMR Intake"}, {"measurement": "Feed Intake (as fed basis), TMR in Second Week", "setting": "cows; ethoxyquin 50 ppm as fed basis", "result": 91, "unit": "pounds per day"}, {"measurement": "Milk Production Based on Feed Efficiency, Lbs. Milk / TMR in Second Week", "setting": "cows; ethoxyquin 50 ppm as fed basis", "result": "0.91 lbs. Milk Produced/pounds TMR Intake"}, {"measurement": "Milk Produced During First Week", "setting": "cows; [4]", "result": 79, "unit": "lbs./day"}, {"measurement": "Milk Produced During Second Week", "setting": "cows; [4]", "result": 82, "unit": "lbs./day"}, {"measurement": "Feed Intake (as fed basis), TMR in First Week", "setting": "cows; [5]", "result": 92, "unit": "pounds per day"}, {"measurement": "Milk Production Based on Feed Efficiency, Lbs. Milk / TMR in First Week", "setting": "cows; [5]", "result": "0.80 lbs. Milk Produced/pounds TMR Intake"}, {"measurement": "Feed Intake (as fed basis), TMR in Second Week", "setting": "cows; [5]", "result": 91, "unit": "pounds per day"}, {"measurement": "Milk Production Based on Feed Efficiency, Lbs. Milk / TMR in Second Week", "setting": "cows; [5]", "result": "0.79 lbs. Milk Produced/pounds TMR Intake"}, {"measurement": "Milk Produced During First Week", "setting": "cows; [6]", "result": 74, "unit": "lbs./day"}, {"measurement": "Milk Produced During Second Week", "setting": "cows; [6]", "result": 72, "unit": "lbs./day"}, {"measurement": "Feed Intake (as fed basis), TMR in First Week", "setting": "cows; [7]", "result": 92, "unit": "pounds per day"}, {"measurement": "Milk Production Based on Feed Efficiency, Lbs. Milk / TMR in First Week", "setting": "cows; [7]", "result": "0.76 lbs. Milk Produced/pounds TMR Intake"}, {"measurement": "Feed Intake (as fed basis), TMR in Second Week", "setting": "cows; [7]", "result": 92, "unit": "pounds per day"}, {"measurement": "Milk Production Based on Feed Efficiency, Lbs. Milk / TMR in Second Week", "setting": "cows; [7]", "result": "0.80 lbs. Milk Produced/pounds TMR Intake"}, {"measurement": "Milk Produced During First Week", "setting": "cows; [8]", "result": 70, "unit": "lbs./day"}, {"measurement": "Milk Produced During Second Week", "setting": "cows; [8]", "result": 74, "unit": "lbs./day"}, {"measurement": "Ethoxyquin detected in milk", "setting": "[2]; milk from cattle treated by the method of the invention", "result": "no ethoxyquin has been detected"}, {"measurement": "Level of ethoxyquin in the milk", "setting": "[2]; milk produced according to the invention", "result": "less than 0.1 ppm by weight"}, {"measurement": "Difference in milk production, treated vs control", "setting": "lactating dairy cows; ethoxyquin 65 ppm", "result": "little difference in milk production"}, {"measurement": "Feed Efficiency As Fed Basis", "setting": "lactating dairy cows; ethoxyquin 65 ppm by weight of total feed, three weeks, calculated from milk production and feed intake", "result": 0.89}, {"measurement": "Feed Intake As Fed Basis", "setting": "lactating dairy cows; [9]", "result": 93.5, "unit": "lbs./day"}, {"measurement": "Feed Intake DMI Basis", "setting": "lactating dairy cows; [9]", "result": 60.3, "unit": "lbs./day"}, {"measurement": "Milk Production", "setting": "lactating dairy cows; [9]", "result": 83.4, "unit": "lbs./day"}, {"measurement": "Improvement in feed efficiency (pounds of milk produced per pounds of TMR intake)", "setting": "lactating dairy cows; ethoxyquin 65 ppm vs control, printed as on a dry matter basis", "result": 4.7, "unit": "%"}, {"measurement": "Ethoxyquin residue in milk", "setting": "[3]", "result": "appearance of ethoxyquin in the fat of the resulting milk"}]}]}
